Data as given in publication PMC11201828, “A Novel Dimeric Short Peptide Derived from α-Defensin-Related Rattusin with Improved Antimicrobial and DNA-Binding Activities” (Biomolecules, 2024).
In brackets after ≈: the same amount, converted by molar mass. Read-outs that look alike come from different tables or passages of the source. Positions of bridges follow the written chain, without caps; N, C: chain ends. Residues, ends and D or L forms follow the SMILES beside them. Chains are numbered I, II in the order given. No end group written: not given here.

Key:
Bacillus subtilis = format: cell-based; conditions: 24 h
Method: (§1) The minimal inhibitory concentrations (MICs) of the peptides were determined following the broth microdilution method recommended by the Clinical and Laboratory Standards Institute (CLSI). Briefly, bacteria in their mid-logarithmic growth phase were diluted in Mueller–Hinton broth (MHB) (Difco, Franklin Lakes, NJ, USA) and aliquoted into a 96-well microtiter plate at a density of 4 × 10^6 CFU/well. The assay included both Gram-negative bacteria (Escherichia coli, Salmonella typhimurium, and Pseudomonas aeruginosa) and Gram-positive bacteria (Bacillus subtilis, Staphylococcus aureus, and Staphylococcus epidermidis), as well as methicillin-resistant Staphylococcus aureus strains (MRSA: CCARM 3089, CCARM 3090, CCARM 3095). The samples were subjected to a two-fold serial dilution before being added to the wells, and the plate was incubated at 37 °C for 24 h. The MIC was defined as the lowest peptide concentration that prevented visible bacterial growth. All experiments were conducted in triplicate and included appropriate growth and sterility controls.

Salmonella typhimurium = format: cell-based; conditions: 24 h
Method: as §1

[1] = system: Staphylococcus epidermidis; format: cell-based; conditions: 24 h
Method: as §1

bacterial strains = format: cell-based; conditions: strain not given; see Tables 1 and 2
Method: as §1

Escherichia coli = format: cell-based; conditions: 24 h
Method: as §1

Pseudomonas aeruginosa = format: cell-based; conditions: 24 h
Method: as §1

Staphylococcus aureus = format: cell-based; conditions: 24 h
Method: as §1

MRSA CCARM 3095 = format: cell-based, methicillin-resistant Staphylococcus aureus; conditions: CCARM 3095, 24 h
Method: as §1

MRSA CCARM 3089 = format: cell-based, methicillin-resistant Staphylococcus aureus; conditions: CCARM 3089, 24 h
Method: as §1

MRSA CCARM 3090 = format: cell-based, methicillin-resistant Staphylococcus aureus; conditions: CCARM 3090, 24 h
Method: as §1

E. coli ML-35 = test: ONPG hydrolysis assay (inner membrane permeability); format: cell-based, Escherichia coli; conditions: 32 µM F2, 4 µM melittin, 16 µM buforin-2, Figure 4
Method: The internal membrane permeability was assessed using the ONPG hydrolysis assay, as described previously. E. coli ML-35p, which constitutively expresses cytoplasmic β-galactosidase and periplasmic β-lactamase, is resistant to ampicillin and deficient in lactose permease. E. coli ML-35 was incubated in LB broth containing ampicillin at 37 °C until the optical density (O.D.) at 600 nm reached 1.0. The cells were then washed with a buffer consisting of 97% 1× PBS and 3% LB and diluted to an O.D. 600 of 0.4 in the same buffer. A mixture of 50 μL of serially diluted peptide and 20 μL of dye (ONPG, final concentration 3 mM) was added to 100 μL of the bacterial suspension in a sterilized 96-well plate. Melittin served as a positive control, while buforin-2 was used as a negative control. The hydrolysis of ONPG was measured using a PHOMO Elisa reader (Autobio, Zhengzhou, China) at 405 nm for each time period.

S. aureus cell membranes = test: SYTOX Green uptake assay; format: cell-based, Staphylococcus aureus; conditions: 32 µM F2, 4 µM melittin, 16 µM buforin-2, Figure 3
Method: The membrane permeabilization activity of the peptides was determined using the SYTOX Green uptake assay, as described previously. S. aureus was cultured in LB broth at 37 °C until it reached an optical density (O.D.) at 600 nm of 0.4, indicative of the mid-logarithmic phase. The cells were then washed and diluted to an O.D. 600 of 0.05 using 1× PBS buffer. The dye (SYTOX Green nucleic acid stain) was added to the bacterial suspension at a concentration of […], and the mixture was incubated at 4 °C for 18 h with agitation in the dark. The SYTOX Green-treated bacteria were placed in a quartz cell, where they were simultaneously exposed to the positive control melittin (2× MIC), the negative control buforin-2 (2× MIC), and the F2 dimer (2× MIC). An F-4500 FL fluorescence spectrophotometer (Shimadzu, Kyoto, Japan) was used to monitor fluorescence (excitation 485 nm, emission 520 nm).

[2] = system: S. aureus cytoplasmic membrane; test: Membrane depolarization assay, DiSC3-(5) dye; format: cell-based, Staphylococcus aureus; conditions: intact S. aureus; 32 µM F2, 4 µM melittin, 16 µM buforin-2; peptide added after 300 s; Figure 2
Method: The cytoplasmic membrane depolarization activity of the peptides was assessed using the membrane-potential-sensitive dye DiSC3-(5), following methodologies previously described in the literature. Staphylococcus aureus was cultured in Luria–Bertani (LB) broth at 37 °C until reaching an optical density (O.D.) at 600 nm of 0.3–0.4, indicative of mid-logarithmic phase growth. The cells were then washed with a buffer containing 20 mM glucose and 5 mM HEPES, and the cell suspension was diluted to an O.D. 600 of 0.05 in the same buffer. Potassium chloride (KCl) was added to achieve a final concentration of 100 mM to equilibrate potassium ion levels. The concentrations used for each peptide in our membrane depolarization assays were based on their respective MICs: 32 µM for F2, 4 µM for Melittin, and 16 µM for Buferin-2.
Fluorescence was monitored using an F-4500 FL fluorescence spectrophotometer (Shimadzu, Kyoto, Japan) with excitation and emission wavelengths set at 622 nm and 670 nm, respectively. Melittin, known for its membrane-disrupting properties, served as a positive control, while buforin-2, which translocates across membranes without causing depolarization, acted as a negative control. Both melittin and buforin-2 were tested at concentrations twice their minimal inhibitory concentration (MIC) levels.

plasmid DNA (pHIS2) = test: DNA-binding gel retardation assay; conditions: plasmid pHIS2 145 μg/mL, 37 °C, 1 h, 1% agarose gel; Figure 5
Method: We evaluated the DNA-binding ability of F2 and F2 (C4S) monomeric peptides using gel retardation experiments. The concentration of plasmid DNA (pHIS2) was fixed at 145 μg/mL. The peptide was serially diluted in a binding buffer consisting of 10 mM Tris-HCl (pH 8.0), 5% glucose, 50 μg/mL BSA, 1 mM EDTA, and 20 mM KCl. This solution was then mixed with the DNA and incubated at 37 °C for 1 h. After incubation, the DNA–peptide mixture was stained with DNA gel loading dye. The samples were analyzed using 1% agarose gel electrophoresis in 0.5× TAE buffer. Plasmid bands were detected with a UV illuminator (Bio-Rad, Hercules, CA, USA).

Row | Compound | MIC (bacterial strains) [µg/mL] | MIC (Escherichia coli) [µg/mL] | MIC (Staphylococcus aureus) [µg/mL] | MIC (MRSA CCARM 3095) [µg/mL] | MIC (MRSA CCARM 3089) [µg/mL] | MIC (MRSA CCARM 3090) [µg/mL] | further results
1 | CC(C)[C@@H]1NC(=O)[C@H](CCCNC(=N)N)NC(=O)[C@H](CCCNC(=N)N)NC(=O)[C@H]([C@@H](C)O)NC(=O)[C@H](CC(N)=O)NC(=O)[C@H](CCCNC(=N)N)NC(=O)[C@@H](NC(=O)[C@@H](NC(=O)[C@H](CCCNC(=N)N)NC(=O)[C@@H](N)CCCNC(=N)N)C(C)C)CSSC[C@@H](C(=O)N[C@@H](CCCNC(=N)N)C(=O)N[C@@H](CC(N)=O)C(=O)N[C@H](C(N)=O)[C@@H](C)O)NC1=O [F2-AH] (H-RRVCRNTRRVCRNT-NH2; disulfide 4-11; N-terminus assumed) | 15 (≈ 8.39 µM) | 15 (≈ 8.39 µM) | 29 (≈ 16.2 µM) | 58 (≈ 32.5 µM) | 29 (≈ 16.2 µM) | 29 (≈ 16.2 µM) | MIC (Bacillus subtilis): 29 µg/mL (≈ 16.2 µM); MIC (Salmonella typhimurium; murium): 15 µg/mL (≈ 8.39 µM); MIC [1]: 15 µg/mL (≈ 8.39 µM); MIC (Pseudomonas aeruginosa): 15 µg/mL (≈ 8.39 µM)
2 | CC(C)[C@H](NC(=O)[C@@H]1CSSC[C@H](NC(=O)[C@@H](NC(=O)[C@H](CCCNC(=N)N)NC(=O)[C@@H](N)CCCNC(=N)N)C(C)C)C(=O)N[C@@H](CCCNC(=N)N)C(=O)N[C@@H](CC(N)=O)C(=O)N[C@@H]([C@@H](C)O)C(=O)N[C@@H]([C@@H](C)O)C(=O)N[C@@H](CC(N)=O)C(=O)N[C@@H](CCCNC(=N)N)C(=O)N1)C(=O)N[C@@H](CCCNC(=N)N)C(=O)N[C@@H](CCCNC(=N)N)C(N)=O [F2-PH] (H-RRVCRNTTNRCVRR-NH2; disulfide 4-11; N-terminus assumed) | 15 (≈ 8.39 µM) | 15 (≈ 8.39 µM) | 29 (≈ 16.2 µM) | 29 (≈ 16.2 µM) | 29 (≈ 16.2 µM) | 58 (≈ 32.5 µM) | MIC (Bacillus subtilis): 29 µg/mL (≈ 16.2 µM); MIC (Salmonella typhimurium; murium): 15 µg/mL (≈ 8.39 µM); MIC [1]: 15 µg/mL (≈ 8.39 µM); MIC (Pseudomonas aeruginosa): 15 µg/mL (≈ 8.39 µM)
3 | CC[C@H](C)[C@H](NC(=O)[C@@H]1CSSC[C@H](NC(=O)[C@H](CCC(N)=O)NC(=O)[C@@H](N)CC(C)C)C(=O)N[C@@H](CO)C(=O)N[C@H]2CSSC[C@H](NC(=O)[C@H]([C@@H](C)O)NC(=O)[C@H](CC(N)=O)NC(=O)[C@H](CCCNC(=N)N)NC(=O)[C@@H]3CSSC[C@H](NC(=O)[C@H](C(C)C)NC(=O)[C@H](CCCNC(=N)N)NC(=O)[C@H](CCCNC(=N)N)NC2=O)C(=O)N[C@@H](CCCNC(=N)N)C(=O)N[C@@H](CC(N)=O)C(=O)N[C@@H]([C@@H](C)O)C(=O)N[C@H]2CSSC[C@H](NC(=O)[C@H](CO)NC(=O)[C@@H](NC(=O)[C@H](CCC(N)=O)NC(=O)[C@@H](N)CC(C)C)CSSC[C@@H](C(=O)N[C@H](C(=O)N[C@@H](CCCNC(=N)N)C(N)=O)[C@@H](C)CC)NC(=O)[C@H](CO)NC2=O)C(=O)N[C@@H](CCCNC(=N)N)C(=O)N[C@@H](CCCNC(=N)N)C(=O)N[C@@H](C(C)C)C(=O)N3)C(=O)N[C@@H](CO)C(=O)N1)C(=O)N[C@@H](CCCNC(=N)N)C(N)=O [F4] (I: H-LQCSCRRVCRNTCSCIR-NH2 / II: H-LQCSCRRVCRNTCSCIR-NH2; disulfide I:3-II:15, I:5-II:13, I:9-II:9, I:13-II:5, I:15-II:3 (inferred); N-terminus assumed) | – | 32 (≈ 8.02 µM) | 64 (≈ 16 µM) | – | – | – | –
4 | CC[C@H](C)[C@H](NC(=O)CN)C(=O)NCC(=O)N[C@@H](C)C(=O)N[C@H](C(=O)N[C@@H](CC(C)C)C(=O)N[C@@H](CCCCN)C(=O)N[C@H](C(=O)N[C@@H](CC(C)C)C(=O)N[C@H](C(=O)N[C@H](C(=O)NCC(=O)N[C@@H](CC(C)C)C(=O)N1CCC[C@H]1C(=O)N[C@@H](C)C(=O)N[C@@H](CC(C)C)C(=O)N[C@H](C(=O)N[C@@H](CO)C(=O)N[C@@H](Cc1c[nH]c2ccccc12)C(=O)N[C@H](C(=O)N[C@@H](CCCCN)C(=O)N[C@@H](CCCNC(=N)N)C(=O)N[C@@H](CCCCN)C(=O)N[C@@H](CCCNC(=N)N)C(=O)N[C@@H](CCC(N)=O)C(=O)N[C@@H](CCC(N)=O)C(N)=O)[C@@H](C)CC)[C@@H](C)CC)[C@@H](C)O)[C@@H](C)O)C(C)C)C(C)C [Melittin] | – | – | – | – | – | – | ONPG hydrolysis (absorbance at 405 nm) (E. coli ML-35): change in absorbance; SYTOX Green uptake (fluorescence intensity) (S. aureus cell membranes): significant increase in fluorescence intensity; cytoplasmic membrane depolarization (DiSC3-(5) fluorescence) [2]: complete depolarization
5 | Buforin-2 | – | – | – | – | – | – | peptide concentration giving DNA band retardation (plasmid DNA (pHIS2)): 2 µM; ONPG hydrolysis (absorbance at 405 nm) (E. coli ML-35): did not alter the absorbance; SYTOX Green uptake (fluorescence intensity) (S. aureus cell membranes): did not show a similar increase in fluorescence intensity; cytoplasmic membrane depolarization (DiSC3-(5) fluorescence) [2]: failed to induce any change in membrane potential
6 | IRLSRSTYAS-NH2 [F3] | > 590 | >590 | >590 | – | – | – | –
7 | LRVRRTLQ-NH2 [F1] | – | 67 | >500 | – | – | – | –
8 | RRVSRNT-NH2 [F2 (C15S)] | > 227 | – | – | >114 | >114 | >114 | peptide concentration giving DNA band retardation (plasmid DNA (pHIS2)): > 16 µM; MIC (Bacillus subtilis; Bacillus subtilis, broth microdilution, MHB, 37 °C, triplicate): >227 µg/mL; MIC (Salmonella typhimurium; Salmonella typhimurium, broth microdilution, MHB, 37 °C, triplicate): >227 µg/mL; MIC ([1]; Staphylococcus epidermidis, broth microdilution, MHB, 37 °C, triplicate): >227 µg/mL; MIC (Escherichia coli; Escherichia coli, broth microdilution, MHB, 4 × 10^6 CFU/well, 37 °C, triplicate, no deviations): >227 µg/mL; MIC (Pseudomonas aeruginosa; Pseudomonas aeruginosa, broth microdilution, MHB, 37 °C, triplicate): >227 µg/mL; MIC (Staphylococcus aureus; Staphylococcus aureus, broth microdilution, MHB, 37 °C, triplicate): >227 µg/mL
